Values joined by “and” are separate entries in the source; they are usually repeats but may differ in a detail not shown here. Identical values can stand only once.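 Results reflect a 48-hour exposure of cells in 96-well plates to compound at five concentrations. GI50 = concentration required for 50% inhibition of growth. TGI is the concentration that stops growth completely.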
What was measured:
Test in all cases: inhibition of tumour cell growth, NCI panel, 48 h
HCT-15 colon = tested on: HCT-15 colon
UACC-62 melanoma = tested on: UACC-62 melanoma
OVCAR-5 ovarian = tested on: OVCAR-5 ovarian
RPMI-8226 leukemia = tested on: RPMI-8226 leukemia
LOX IMVI melanoma = tested on: LOX IMVI melanoma
HCT-116 colon = tested on: HCT-116 colon
SK-OV-3 ovarian = tested on: SK-OV-3 ovarian
SK-MEL-5 melanoma = tested on: SK-MEL-5 melanoma
MDA-MB-435 = tested on: MDA-MB-435
BT-549 breast = tested on: BT-549 breast

Structure (SMILES) | GI50 (HCT-15 colon) | TGI (HCT-15 colon) | GI50 (UACC-62 melanoma) | TGI (UACC-62 melanoma) | GI50 (OVCAR-5 ovarian) | TGI (OVCAR-5 ovarian) | GI50 (RPMI-8226 leukemia) | TGI (RPMI-8226 leukemia) | GI50 (LOX IMVI melanoma) | TGI (LOX IMVI melanoma) | GI50 (HCT-116 colon) | TGI (HCT-116 colon) | GI50 (SK-OV-3 ovarian) | TGI (SK-OV-3 ovarian) | GI50 (SK-MEL-5 melanoma) | TGI (SK-MEL-5 melanoma) | GI50 (MDA-MB-435) | TGI (MDA-MB-435) | GI50 (BT-549 breast) | TGI (BT-549 breast)
O=c1/c(=C\c2ccc(Br)cc2)sc2n1C(c1ccc(Br)cc1)C1=C(N=2)c2ccc3ccccc3c2OCC1 (centres undefined) | > 100 µM | > 100 µM | > 100 µM | > 100 µM | > 100 µM | > 100 µM | > 100 µM | > 100 µM | > 100 µM | > 100 µM | > 100 µM | > 100 µM | > 100 µM | > 100 µM | > 100 µM | > 100 µM | > 100 µM | > 100 µM | > 100 µM | > 100 µM
CCn1ncc(N=O)c1N | – | > 100 µM | – | > 100 µM | – | > 100 µM | – | > 100 µM | – | > 100 µM | – | > 100 µM | – | – | – | > 100 µM | – | > 100 µM | – | –
O=C1c2ccc3c4c(ccc(c24)C(=O)N1CCNCc1ccccc1)C(=O)N(CCNCc1ccccc1)C3=O | 1.43 µM | 2.92 µM | 1.74 µM | 3.35 µM | 2.02 µM | 4.61 µM | 2 µM | 5.12 µM | 1.67 µM | 3.16 µM | 1.42 µM | 2.89 µM | 20.9 µM | 45.4 µM | 1.39 µM | 2.68 µM | – | – | 2.45 µM | 6.19 µM
CCOC(=O)C(=O)C(C#N)c1ccc(Cl)cc1 (centres undefined) | – | > 100 µM | – | > 100 µM | – | > 100 µM | – | > 100 µM | – | > 100 µM | – | > 100 µM | – | > 100 µM | – | > 100 µM | – | – | – | –
COC(=O)[C@]12CC[C@@H](C)[C@H](C)[C@@H]1C1=CC[C@@H]3[C@@](C)(CC#N)C4=C(C[C@@]3(C)[C@]1(C)CC2)OC[C@]4(C)C=O | 3.1 µM | 23.2 µM | – | – | 14.1 µM | 35.8 µM | 3.05 µM | 13.6 µM | 3.11 µM | 13.3 µM | 2.78 µM | 10.7 µM | 4.92 µM | 62.6 µM | 3.3 µM | 11 µM | 4.39 µM | 44.1 µM | 4.08 µM | 32.9 µM
Cc1cc(Cl)cc2c1NC(=O)C2(O)C(C(=O)c1ccccc1)c1ccccc1 (centres undefined) | – | > 100 µM | – | 33.3 µM | – | > 100 µM | – | 64.5 µM and 42.4 µM | – | > 100 µM and 46.1 µM | – | 79.3 µM | – | > 100 µM | – | 45.4 µM | – | – | – | –
O=C(O)CCC1c2[nH]c3ccccc3c2CCN1Cc1ccccc1 (centres undefined) | – | > 100 µM | – | > 100 µM | – | > 100 µM | – | – | – | > 100 µM | – | > 100 µM | – | > 100 µM | – | > 100 µM | – | – | – | –
O=C(CC1(O)C(=O)Nc2ccccc21)c1ccccc1O (centres undefined) | – | > 100 µM | – | > 100 µM | – | > 100 µM | – | > 100 µM | – | > 100 µM | – | > 100 µM | – | > 100 µM | – | > 100 µM | – | – | – | –
CCN(CC)CC(O)c1cc(-c2ccc(Cl)cc2)nc2c(C)c(Cl)ccc12 (centres undefined) | – | – | 1.84 µM | 3.39 µM | 1.74 µM | 3.37 µM | 2.41 µM | 5.71 µM | 1.41 µM | 2.77 µM | 1.66 µM | 3.18 µM | 1.71 µM | 3.28 µM | 1.7 µM | 3.11 µM | 1.74 µM | 3.29 µM | 2.27 µM | 4.49 µM
O=C(/C=C/C=C/c1ccc2c(c1)OCO2)N/N=C\c1ccc(O)cc1O | 0.776 µM | 21.4 µM | 1.63 µM | 7.08 µM | 3.87 µM | 27.4 µM | – | – | 1.18 µM | 10.1 µM | 2.02 µM | 14.5 µM | 3.43 µM | 20.9 µM | 1.63 µM | 3.87 µM | 4.35 µM | 19 µM | 2.25 µM | 7.49 µM
Cc1c(C(=O)c2ccccc2)[n+](=O)c2cc(F)c(F)cc2n1[O-] | 0.511 µM | 1.64 µM | 1.51 µM | 2.83 µM | 18.7 µM | 33.8 µM | – | – | 1.61 µM | 3.01 µM | – | – | 3.7 µM | 12.9 µM | 2.03 µM | 4.24 µM | 2.2 µM | 5.43 µM | 2.04 µM | 4.39 µM
N#Cc1cccc(C2C(=O)c3ccc(C(=O)c4ccc5c(c4)C(=O)N(c4ccc(Oc6ccc(N7C(=O)c8ccc(C(=O)c9ccc%10c(c9)C(=O)N(c9cccc(C#N)c9)C%10=O)cc8C7=O)cc6)cc4)C5=O)cc3C2=O)c1 (centres undefined) | – | > 100 µM | – | > 100 µM | – | > 100 µM | – | > 100 µM | – | – | – | > 100 µM | – | – | – | > 100 µM | – | – | – | –
N#CCCN(c1ccc(C=O)cc1)S(=O)(=O)c1ccccc1 | – | > 100 µM | – | > 100 µM | – | > 100 µM | – | > 100 µM | – | > 100 µM | – | > 100 µM | – | > 100 µM | – | > 100 µM | – | – | – | –
COc1ccc2nc3ccccc3c(NCCN(CCCl)CCCl)c2c1 | – | – | – | 2.3 µM | – | 2.49 µM | – | – | – | – | – | 2.08 µM | – | 5.05 µM | – | – | – | – | – | –
O=C(CC(=O)c1cccc([N+](=O)[O-])c1)C(=O)Nc1ccccc1 | – | > 100 µM | – | > 100 µM | – | > 100 µM | – | > 100 µM | – | > 100 µM | – | > 100 µM | – | – | – | > 100 µM | – | – | – | –
CN1C2(c3ccccc3)C(C(=O)c3ccccc3)=C(C(=O)c3ccccc3)C1(c1ccccc1)c1c(-c3ccccc3)sc(-c3ccccc3)c12 | – | > 100 µM | – | > 100 µM | – | > 100 µM | – | > 100 µM | – | > 100 µM | – | > 100 µM | – | > 100 µM | – | > 100 µM | – | – | – | –
Cc1ccc(NC(=O)CC2SC(=Nc3ccc(Cl)cc3)NC2=O)cc1C (centres undefined) | – | 29.3 µM | – | 32.6 µM | – | 33.1 µM | – | 21.2 µM | – | 33.7 µM | – | 32.9 µM | – | > 66.1 µM | – | 36.6 µM | – | – | – | –
CCCCCCCCCCCCCCCCCC[S+](C)CC (centres undefined) | 2.84 µM | 16.9 µM | – | – | 1.58 µM | 4.25 µM | – | – | – | – | – | – | 1.86 µM | 5.45 µM | – | – | 1.63 µM | 3.47 µM | – | –
Cc1ccccc1-n1c(CCl)nc2ccc(Br)cc2c1=O | – | 14.4 µM | – | 17.9 µM | – | 56.3 µM | – | 71.4 µM | – | 1.46 µM | – | 21.3 µM | – | > 100 µM | – | 22.9 µM | – | – | – | –
